# Experimental data published in PMC5795001, “The activity of the C4-dicarboxylic acid chemoreceptor of Pseudomonas aeruginosa is controlled by chemoattractants and antagonists” (Scientific Reports, 2018).
# Experiments:
# [1] = target: T1, PA2652-LBD (Pseudomonas aeruginosa, UniProt Q9I0I6); test: ITC titration with L-malic acid in absence and presence of antagonists (competition); type: binding, Pseudomonas aeruginosa PAO1
# T1 construct: The DNA fragment encoding the LBD of PA2652 (Lys^34–Thr^205) was amplified; His-tag (vector-encoded by pET28b(+) via NdeI site); made in house; host or cells: Escherichia coli BL21 (DE3)
# T1 sequence (Q9I0I6 34-205): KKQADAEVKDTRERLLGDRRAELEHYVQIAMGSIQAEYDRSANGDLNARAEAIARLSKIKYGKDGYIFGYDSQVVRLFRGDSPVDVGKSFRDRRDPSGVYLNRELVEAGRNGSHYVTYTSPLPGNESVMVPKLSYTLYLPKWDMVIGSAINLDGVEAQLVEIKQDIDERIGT
# Source text: In order to understand the mechanistic role of these antagonistics in the chemotaxis behaviour of P. aeruginosa, we first carried out ITC binding studies. In these assays, we measured the affinity of L-malic acid for PA2652-LBD in the presence of different concentrations of citraconic and D,L-methylsuccinic acids. […] Considering the close structural similarity of antagonists and L-malic acid (Fig. 3) it is likely that these compounds compete for binding at the same site at PA2652.
# Figure 7 Attractants and antagonists compete for binding at PA2652-LBD in vitro. Isothermal titration calorimetry analysis of the binding of L-malic acid to PA2652-LBD in the absence and presence of 2 or 20 mM of the antagonists, citraconic and D,L-methylsuccinic acids. Upper panel: Titration raw data for the injection of 9.6 μl aliquots of 1 mM of L-malic acid into 20 μM of protein in the absence and presence of antagonists (present both in the injector syringe and sample cell). Lower panel: Integrated, dilution heat corrected and concentration normalized peak areas fitted with the “One binding site” model of ORIGIN. The apparent binding constants are listed in Supplementary Table S2.
# Experiments were conducted on a VP-microcalorimeter (Microcal, Amherst, MA, USA) at 20 °C. PA2652-LBD was dialyzed overnight against TNG buffer, adjusted to a concentration of 20–35 μM and placed into the sample cell of the instrument. The protein was titrated by the injection of 9.6–14.4 μl aliquots of 1–20 mM ligand solutions that were prepared in TNG buffer (20 mM Tris/HCl, 150 mM NaCl, 10% (v/v) glycerol, pH 6.8) immediately before use. The mean enthalpies measured from the injection of ligands into buffer were subtracted from raw titration data prior to data analysis with the MicroCal version of ORIGIN. Data were fitted with the “One binding site model”.
# [2] = tested on: Pseudomonas aeruginosa PAO1 (wt and PA2652 mutant); test: Growth experiments with ligands as sole carbon source; type: cell-based; details: M9 minimal medium, 10 mM carbon source
# Source text: To evaluate the physiological relevance of the ligands identified, we first addressed the question of whether they could support bacterial growth as sole carbon source. To this end, we conducted growth experiments of the wild type (wt) strain and a mutant defective in PA2652 in minimal medium supplemented with the different ligands as sole carbon sources.
# Bacterial strains used in this study are listed in Supplementary Table S3. Pseudomonas aeruginosa PAO1 and its derivative strains were routinely grown at 37 °C in Luria Broth (LB; 5 g yeast extract l^−1, 10 g Bacto tryptone l^−1 and 5 g NaCl l^−1) or M9 medium supplemented with 1 mM MgSO4, 6 mg l^−1 Fe-citrate, trace elements[81] and 15 mM glucose as carbon source. For growth experiments to assess the capacity of PA2652-LBD ligands to support growth a sole C-source, PAO1 cells were pre-cultured overnight in M9 medium supplemented with 10 mM glucose and washed twice with M9 medium salts, prior to the inoculation of M9 medium containing10 mM of the different carbon sources. When necessary, the pH of the medium was adjusted to 7.0 prior to inoculation. Bacterial growth over the time was monitored using Bioscreen Microbiological Growth Analyser (Oy Growth Curves Ab Ltd, Helsinki, Finland). Escherichia coli strains were grown at 37 °C in LB. Escherichia coli DH5α was used as a host for gene cloning. When appropriate, antibiotics were used at the following final concentrations (in µg ml^−1): kanamycin, 25 (E. coli strains) and 100 (Pseudomonas strains); tetracycline, 40.
# [3] = tested on: Pseudomonas aeruginosa PAO1; test: Quantitative capillary chemotaxis assay, wild type; type: cell-based
# Experimental: Secondly, we assessed the capacity of the ligands identified to induce chemotaxis. To this end, we carried out quantitative capillary chemotaxis assays using the wt strain and PA2652 ligands at concentrations ranging from 10 µM to 100 mM.
# Overnight cultures of P. aeruginosa strains were diluted to an OD660 of 0.05 in MS medium (30 mM Na2HPO4, 20 mM KH2PO4, 25 mM NH4NO3, 1 mM MgSO4) supplemented with 6 mg l^−1 Fe-citrate, trace elements[81] and 15 mM glucose as carbon source, and grown at 37 °C with orbital shaking (200 rpm). At an OD660 of 0.4 ([…]) cultures were centrifuged at 1,700 × g for 5 min and the resulting pellet was washed twice with chemotaxis buffer (50 mM potassium phosphate, […], 0.05% (v/v) glycerol, pH 7.0). Subsequently, the cells were resuspended in the same buffer, adjusted to an OD660 of 0.1 and 230 µl aliquots of the bacterial cultures were placed into 96-well plates. For the quantitative assays, one-microliter capillary tubes (Microcaps, Drummond Scientific, Ref. P1424) were heat-sealed at one end and filled with either the chemotaxis buffer (negative control) or chemotaxis buffer containing the chemoeffectors to test. The capillaries were immersed into the bacterial suspensions at its open end. After 30 min at room temperature, capillaries were removed from the bacterial suspensions, rinsed with sterile water and the content expelled into 1 ml of M9 medium salts. Serial dilutions were plated onto M9 minimal medium (containing the appropriate antibiotics) supplemented with 15 mM glucose as carbon source. The number of colony forming units was determined after overnight incubation. In all cases, data were corrected with the number of cells that swam into buffer containing capillaries.
# [4] = L-malic acid titration in presence of 2 mM D,L-methylsuccinic acid
# [5] = L-malic acid titration in presence of 2 mM citraconic acid
# [6] = L-malic acid titration in presence of 20 mM D,L-methylsuccinic acid
# [7] = L-malic acid titration in presence of 20 mM citraconic acid
# [8] = L-malic acid titration, no antagonist
smiles,measurement,setting,value
O=C(O)C[C@H](O)C(=O)O [L-malic acid],Kd,[1],23 ± 1 µM
same,n (apparent),[1]; [4],0.6 ± 0.1
same,∆H (apparent),[1]; [4],-6.7 ± 1 kcal/mol
same,n (apparent),[1]; [5],0.9 ± 0.2
same,∆H (apparent),[1]; [5],-5.1 ± 1 kcal/mol
same,n (apparent),[1]; [6],1.1 ± 0.9
same,∆H (apparent),[1]; [6],-2.6 ± 2 kcal/mol
same,n (apparent),[1]; [7],1.1 ± 1
same,∆H (apparent),[1]; [7],-3.3 ± 5 kcal/mol
same,n (apparent),[1]; [8],1 ± 0.1
same,∆H (apparent),[1]; [8],-4.1 ± 0.6 kcal/mol
same,Change of apparent affinity of L-malic acid,[1]; antagonists increased to 20 mM,further reduction in the apparent affinity
same,Change of apparent affinity of L-malic acid,"[1]; in the presence of 2 mM antagonists (citraconic or D,L-methylsuccinic acid)",decreased approximately by a factor of two
same,Ability to support bacterial growth as sole carbon source,[2],able to efficiently sustain growth
same,Role of PA2652 ligand (chemoattractant or antagonist),[3]; authors' classification from chemotaxis results,chemoattractants
same,Chemotactic response,"[3]; wt PAO1, ligands at 10 µM to 100 mM",strong chemotaxis responses
